Results on 24 molecules are retold here after patent US20070032477A1, “Pteridine derivatives useful for making pharmaceutical compositions” (priority 2003, published 2007).

Test [1] relates to mixed lymphocyte reaction (PBMC with allogeneic PBMC or Eppstein-Barr Virus-transformed human B cells as stimulator cells). Kind of test: Mixed lymphocyte reaction (MLR) assay. Format: cell-based. Particulars: lowest concentration giving 50% suppression of the MLR; [3H]-thymidine. The method, then: Pteridine derivatives were first dissolved (10 mM) in dimethylsulfoxide (hereinafter referred as DMSO) and further diluted in culture medium before use for the following in vitro experiments. The commercially available culture medium consisted of RPMI-1640+10% foetal calf serum (FCS). Some pteridine derivatives described in the previous examples (as indicated in table 1) were tested in the following mixed lymphocyte reaction (MLR) assay.
Peripheral blood mononuclear cells (hereinafter referred as PBMC) were isolated from heparinized peripheral blood by density gradient centrifugation over Lymphoprep (Nycomed, Maorstua, Norway). Allogeneic PBMC or Eppstein-Barr Virus-transformed human B cells [commercially available under the trade name RPM11788 (ATCC name CCL156)] which strongly express B7-1 and B7-2 antigens were used as stimulator cells after irradiation with 30 Gy. MLR was performed in triplicate wells. After 5 days incubation at 37° C., 1 μCi [^3H]-thymidine was added to each cup. After a further 16 hours incubation, cells were harvested and counted in a […]. Inhibition of proliferation by a compound (drug) described in some of the previous examples was counted using the formula: [formula] wherein cpm is the thymidine count per minute. The MLR assay is regarded by those skilled in the art as an in vitro analogue of the transplant rejection since it is based on the recognition of allogeneic major histocompatibility antigens on the stimulator leukocytes, by responding lymphocytes.

Test [2] has as its system production of TNF-α by PBMC in response to stimulation by LPS. Kind of test: TNF-α assay. The class given is cell-based, human. The settings on record: LPS 1 μg/ml, 72 hours, sandwich ELISA. On the procedure:
Peripheral blood mononuclear cells (herein referred as PBMC), in response to stimulation by lipopolysaccharide (hereinafter LPS), a gram-negative bacterial endotoxin, produce various […], in particular human TNF-α. Inhibition of the activation of PBMC can therefore be measured by the level of suppression of the production of TNF-α by PBMC in response to stimulation by LPS.
Such inhibition measurement was performed as follows: PBMC were isolated from heparinized peripheral blood by density gradient centrifugation over Lymphoprep (commercially available from Nycomed, Norway). LPS was then added to the PMBC suspension in complete medium (10^6 cells/ml) at a final concentration of 1 μg/ml. The pteridine derivative to be tested was added at different concentrations (0.1 μM, 1 μM and 10 μM) and the cells were incubated at 37° C. for 72 hours in 5% CO2. The supernatants were collected, then TNF-α concentrations were measured with respectively an anti-TNF-α antibody in a sandwich ELISA (Duo Set ELISA human TNFα, commercially available from R&D Systems, United Kingdom). The calorimetric reading of the ELISA was measured by a Multiskan RC plate reader (commercially available from ThermoLabsystems, Finland) at 450 nm (reference wavelength: 690 nm). Data analysis was performed with Ascent software 2.6. (also from ThermoLabsystems, Finland): a standard curve (recombinant human TNFα) was drawn and the amount (pg/ml) of each sample on the standard curve was determined.
The % suppression of human TNFα production by the pteridine derivatives of the invention (drugs) was calculated using the formula: [formula]

As to `COc1cc(-c2cnc3nc(N)nc(N4CCN(c5ccc(C)cc5)CC4)c3n2)ccc1O` [Example 206], the half-inhibitory concentration (IC50) (in general, the point on the concentration scale where inhibition reaches its midpoint) in test [1] was 500 nM; in test [2], 700 nM.
The like results for `COc1ccc(-c2cnc3nc(N)nc(N4CCN(CCN5CCOCC5)CC4)c3n2)cc1OC` [Example 129, 2-amino-4-(1-(2-morpholino4-yl-ethyl)-piperazino)-6-(3,4-dimethoxyphenyl)pteridine] were, in that order, 2500 nM and 800 nM.
The like results for `COc1ccc(-c2cnc3nc(N)nc(N4CCN(C(=O)OCc5ccccc5)CC4)c3n2)cc1OC` [Example 48, 2-amino-4-[(N-benzyloxycarbonyl)-piperazin-1-yl]-6-(3,4-dimethoxy-phenyl)pteridine] were, in that order, 300 nM and 80 nM.
The like results for `COc1ccc(-c2cnc3nc(N)nc(N4CCN(C(=O)Cc5ccc(Cl)cc5)CC4)c3n2)cc1OC` [Example 45, 2-amino-4-[N-(4-chlorophenylacetyl)-piperazin-1-yl]-6-(3,4-dimethoxy-phenyl)pteridine] were, in that order, 90 nM and 400 nM.
On to `COc1ccc(-c2cnc3nc(N)nc(N4CCN(C(=O)Oc5ccc(Cl)cc5)CC4)c3n2)cc1OC` [Example 94], for which the IC50 was 100 nM in test [1] and 90 nM in test [2].
The like results for `COc1ccc(-c2cnc3nc(N)nc(N4CCN(C(=O)Oc5ccc(C)cc5)CC4)c3n2)cc1OC` [Example 90, 2-amino-4-[(N-4-methyl-phenoxy-carbonyl)-piperazin-1-yl]-6-(3,4-dimethoxyphenyl)pteridine] were, in that order, 58 nM and 40 nM.
Taken in the same sequence, the figures for `COc1ccc(-c2cnc3nc(N)nc(N4CCN(c5cc(Cl)cc(Cl)c5)CC4)c3n2)cc1OC` [Example 171, 2-amino-4-((3,5-dichlorophenyl)-piperazin-1-yl)-6-(3,4-dimethoxyphenyl)pteridine] were 3400 nM and 500 nM.
The like results for `COc1ccc(-c2cnc3nc(N)nc(N4CCN(CCC#N)CC4)c3n2)cc1OC` [Example 163, 2-amino-6-(3,4-dimethoxyphenyl)-4-(4-(3-propionitril)-piperazin-1-yl)pteridine] were, in that order, 500 nM and 500 nM.
As to `COc1ccc(-c2cnc3nc(N)nc(N4CCN(C(=O)c5ccccc5)CC4)c3n2)cc1OC` [Example 11, 2-amino-4-(N-benzoylpiperazin-1-yl)-6-(3,4-dimethoxyphenyl)pteridine], the IC50 in test [1] and in test [2] was 400 nM in each case.
As to `COc1ccc(-c2cnc3nc(N)nc(N4CCN(C(=O)COCc5ccccc5)CC4)c3n2)cc1OC` [Example 28, 2-amino-4-[(N-benzyloxyacetyl)-piperazin-1-yl]-6-(3,4-dimethoxyphenyl)pteridine], the IC50 was 30 nM in test [1] and 500 nM in test [2].
Taken in the same sequence, the figures for `COc1ccc(-c2cnc3nc(N)nc(N4CCN(S(=O)(=O)Cc5ccccc5)CC4)c3n2)cc1OC` [Example 43, 2-amino-4-[(N-benzylsulfonyl)-piperazin-1-yl]-6-(3,4-dimethoxyphenyl)pteridine] were 200 nM and 700 nM.
Taken in the same sequence, the figures for `CCOC(=O)C(C)N1CCN(c2nc(N)nc3ncc(-c4ccc(OC)c(OC)c4)nc23)CC1` (stereo not drawn) [Example 133, 2-amino-4-(2-(piperazin-1-yl)-propionic acid ethyl ester)-6-(3,4-dimethoxyphenyl)pteridine] were 1200 nM and 330 nM.
Regarding `COc1cccc(C(=O)N2CCN(c3nc(N)nc4ncc(-c5ccc(OC)c(OC)c5)nc34)CC2)c1` [Example 26, 2-amino-4-[N-(3-methoxybenzoyl)piperazin-1-yl]-6-(3,4-dimethoxy-phenyl)pteridine], the IC50 in test [1] and in test [2] was 500 nM throughout.
In the case of `COc1ccc(-c2cnc3nc(N)nc(N4CCN(C(=O)c5cccs5)CC4)c3n2)cc1OC` [Example 13, 2-amino-4-[(N-2-thiophenecarbonyl)-piperazin-1-yl]-6-(3,4-dimethoxy-phenyl)pteridine], the results for the IC50 in test [1] and in test [2] were 100 nM and 80 nM, respectively.
Taken in the same sequence, the figures for `COc1ccc(-c2cnc3nc(N)nc(N4CCN(C(=O)Nc5cccc(Cl)c5)CC4)c3n2)cc1OC` [Example 193, 2-amino-4-(N-3-chloro-phenyl-carbamoyl-piperazin-1-yl)-6-(3,4-dimethoxyphenyl)pteridine] were 36 nM and 500 nM.
Taken in the same sequence, the figures for `CCN(CC)C(=O)N1CCN(c2nc(N)nc3ncc(-c4ccc(OC)c(OC)c4)nc23)CC1` [Example 14, 2-amino-4-[(N-diethylcarbamoyl)-piperazin-1-yl]-6-(3,4-dimethoxy-phenyl)pteridine] were 200 nM and 60 nM.
The like results for `COc1ccc(-c2cnc3nc(N)nc(N4CCN(C(=O)N(C)c5ccccc5)CC4)c3n2)cc1OC` [Example 117, 2-amino-4-(N-methyl-N-phenyl-carbamoyl-piperazin-1-yl)-6-(3,4-dimethoxyphenyl)pteridine] were, in that order, 72 nM and 50 nM.
Turning to `COc1ccc(-c2cnc3nc(NCCc4ccccc4)nc(N)c3n2)cc1OC` [Example 79, 2-phenylethylamino-4-amino-6-(3,4-dimethoxyphenyl)pteridine], the results for the IC50 in test [1] and in test [2] were 4100 nM and 9800 nM, respectively.
Taken in the same sequence, the figures for `COc1ccc(-c2cnc3nc(N)nc(N4CCN(C(=O)c5ccccc5OC)CC4)c3n2)cc1OC` [Example 42, 2-amino-4-[N-(2-methoxybenzoyl)-piperazin-1-yl]-6-(3,4-dimethoxy-phenyl)pteridine] were 400 nM and 100 nM.
Taken in the same sequence, the figures for `CCCCNC(=O)N1CCN(c2nc(N)nc3ncc(-c4ccc(OC)c(OC)c4)nc23)CC1` [Example 109, 2-amino-4-[(N-butyl-carbamoyl-piperazin-1-yl)]-6-(3,4-dimethoxyphenyl)pteridine] were 100 nM and 400 nM.
Taken in the same sequence, the figures for `COc1ccc(-c2cnc3nc(N)nc(N4CCN(C(=O)c5ccncc5)CC4)c3n2)cc1OC` [Example 19, 2-amino-4-[(N-isonicotinoyl)-piperazin-1-yl]-6-(3,4-dimethoxyphenyl)pteridine] were 2400 nM and 60 nM.
Consider `COc1ccc(-c2cnc3nc(N)nc(N4CCN(Cc5cccc6ccccc56)CC4)c3n2)cc1OC` [Example 158, 2-amino-4-((1-naphtylmethyl)-piperazin-1-yl)-6-(3,4-dimethoxyphenyl)pteridine], for which the IC50 stood at 800 nM in test [1] and 700 nM in test [2].
Taken in the same sequence, the figures for `COc1ccc(-c2cnc3nc(N)nc(N4CCN(S(=O)(=O)c5ccccc5)CC4)c3n2)cc1OC` [Example 31, 2-amino-4-[(N-phenylsulfonyl)-piperazin-1-yl]-6-(3,4-dimethoxy-phenyl)pteridine] were 3000 nM and 500 nM.
The like results for `COc1ccc(-c2cnc3nc(N)nc(N4CCN(C(=O)Nc5cccc(C(F)(F)F)c5)CC4)c3n2)cc1OC` [Example 195, 2-amino-4-(N-3-trifluoromethyl-phenyl-carbamoyl-piperazin-1-yl)-6-(3,4-dimethoxyphenyl)pteridine] were, in that order, 36 nM and 700 nM.
